Measured values: patent publication US12220418B2 (MEDINCELL S.A., priority 2023, dated 2025)

Experiment: Open-label SAD and MAD study, pharmacokinetics in healthy subjects and patients
Format: in vivo, human
Settings: oral, 2.5 to 20 mg/day for 7 days
Description: This study was an open-label, SAD, and MAD study to evaluate the safety, tolerability, and PK of Formulation 1 in healthy subjects and patients with a diagnosis of schizophrenia or schizoaffective disorder. Healthy subjects received subtherapeutic Formulation 1 doses of up to 105 mg and patients received therapeutic doses of up to 566 mg. […] Subjects and patients who met screening eligibility were assigned to 1 of 8 active cohorts, or the Vehicle Cohort, as detailed in Table 5.1 below.
All cohorts included assessments of safety, tolerability, and intensive PK sampling.
Except for the starting dose of 70 mg, the study followed an adaptive design in which the decision to dose-escalate with Formulation 1 was based on a review of the PK and safety data from the preceding lower dose of Formulation 1.
An extensive PK collection scheme was applied following the last oral dose to fully characterize the PK at steady-state.
In multiple-dose cohorts, the 3 doses of Formulation 1 were administered on day 1, day 29 (week 4) and day 57 (week 8), respectively.

For `Cc1cc2c(s1)Nc1ccccc1N=C2N1CCN(C)CC1` [olanzapine, 2-methyl-4-(4-methyl-1-piperazinyl)-10H-thieno[2,3-b] [1,5]benzodiazepine], which “increase of systemic exposure (Cmax, AUCτ,ss) with dose” value is on record?
The value was “dose-proportional”.
